Reference: patent EP0938471B1, “THE PREPARATION AND USE OF ORTHO-SULFONAMIDO ARYL HYDROXAMIC ACIDS AS MATRIX METALLOPROTEINASE AND TACE INHIBITORS” (priority 1996, dated 1998)
Counter-ions that a name gives are not always drawn. Like-named read-outs stand apart in the source and are kept apart here.

Columns and labels:
Format in all cases: biochemical
MMP-9 = MMP-9 (Homo sapiens, UniProt P14780); assay: MMP-9 inhibition (thiopeptide or fluorescent peptide substrate assay); settings: for inhibition at 1 µM: read-out: MMP-9 % inhibition, footnote: 1µM; for IC50: read-out: MMP-9 IC50
Protocol: The enzyme activity is measured by the rate of the color increase. The thiopeptide substrate is made up fresh as a 20 mM stock in 100% DMSO and the DTNB is dissolved in 100% DMSO as a 100 mM stock and stored in the dark at room temperature. Both the substrate and DTNB are diluted together to 1 mM with substrate buffer (50 mM HEPES pH 7.5, 5 mM CaCl2) before use. […] Alternatively, a fluorescent peptide substrate is used. In this assay, the peptide substrate contains a fluorescent group and a quenching group. Upon cleavage of the substrate by an MMP, the fluorescence that is generated is quantitated on the fluorescence plate reader. […] The substrate is dissolved in methanol and stored frozen in 1 mM aliquots. For the assay, substrate and enzymes are diluted in HCBC buffer to the desired concentrations. Compounds are added to the 96 well plate containing enzyme and the reaction is started by the addition of substrate. […] For either the thiopeptide or fluorescent peptide assays, the slope of the line is calculated and represents the reaction rate. […] The mean (x±sem) of the control rate is calculated and compared for statistical significance (p<0.05) with drug-treated rates using Dunnett's multiple comparison test.

MMP-1 = molecular target: T1, MMP-1 (Homo sapiens, UniProt P03956); assay: MMP-1 inhibition (thiopeptide or fluorescent peptide substrate assay); settings: for MMP-1 % inhibition: concentration given as (10), unit not given; for IC50: read-out: MMP-1 IC50; for inhibition at 1 µM: read-out: MMP-1 % inhibition, footnote: 1µM
T1 sequence (P03956 100-469): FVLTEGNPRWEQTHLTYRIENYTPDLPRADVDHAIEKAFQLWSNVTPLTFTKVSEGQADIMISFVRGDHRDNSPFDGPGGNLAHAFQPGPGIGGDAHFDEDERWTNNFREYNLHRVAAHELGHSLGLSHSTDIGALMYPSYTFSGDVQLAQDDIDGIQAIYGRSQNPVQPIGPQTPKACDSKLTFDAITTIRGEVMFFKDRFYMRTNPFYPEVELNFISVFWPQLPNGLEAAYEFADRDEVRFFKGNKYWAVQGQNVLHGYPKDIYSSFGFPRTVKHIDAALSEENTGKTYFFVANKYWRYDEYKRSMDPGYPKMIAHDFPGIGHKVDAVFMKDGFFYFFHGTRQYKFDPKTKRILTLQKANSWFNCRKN

TACE = TACE (Homo sapiens, UniProt P78536); assay: TACE inhibition (fluorescent peptidyl substrate); settings: for inhibition at 1 µM: at 1µM concentration
MMP-13 = MMP-13 (Homo sapiens, UniProt P45452); assay: MMP-13 inhibition (thiopeptide or fluorescent peptide substrate assay); settings: for inhibition at 1 µM: read-out: MMP-13 % inhibition, footnote: 1µM

TACE, sequence (P78536 215-824): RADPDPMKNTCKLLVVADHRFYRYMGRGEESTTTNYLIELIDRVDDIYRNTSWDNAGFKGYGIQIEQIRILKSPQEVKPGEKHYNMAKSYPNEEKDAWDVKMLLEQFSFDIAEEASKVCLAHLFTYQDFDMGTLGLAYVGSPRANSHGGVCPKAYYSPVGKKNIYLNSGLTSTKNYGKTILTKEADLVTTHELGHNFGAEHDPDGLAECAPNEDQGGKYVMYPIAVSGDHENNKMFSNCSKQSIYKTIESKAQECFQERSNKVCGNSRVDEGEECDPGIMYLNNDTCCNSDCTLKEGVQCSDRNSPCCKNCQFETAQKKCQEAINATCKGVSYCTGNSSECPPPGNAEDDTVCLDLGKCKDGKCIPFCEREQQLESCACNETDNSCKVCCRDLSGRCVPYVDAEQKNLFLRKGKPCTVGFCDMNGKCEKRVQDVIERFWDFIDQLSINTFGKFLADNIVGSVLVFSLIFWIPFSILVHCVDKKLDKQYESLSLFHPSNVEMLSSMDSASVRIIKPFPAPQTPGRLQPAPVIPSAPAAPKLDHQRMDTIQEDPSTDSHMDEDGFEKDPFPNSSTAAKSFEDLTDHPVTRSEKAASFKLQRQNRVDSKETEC
MMP-9, sequence (P14780 94-707): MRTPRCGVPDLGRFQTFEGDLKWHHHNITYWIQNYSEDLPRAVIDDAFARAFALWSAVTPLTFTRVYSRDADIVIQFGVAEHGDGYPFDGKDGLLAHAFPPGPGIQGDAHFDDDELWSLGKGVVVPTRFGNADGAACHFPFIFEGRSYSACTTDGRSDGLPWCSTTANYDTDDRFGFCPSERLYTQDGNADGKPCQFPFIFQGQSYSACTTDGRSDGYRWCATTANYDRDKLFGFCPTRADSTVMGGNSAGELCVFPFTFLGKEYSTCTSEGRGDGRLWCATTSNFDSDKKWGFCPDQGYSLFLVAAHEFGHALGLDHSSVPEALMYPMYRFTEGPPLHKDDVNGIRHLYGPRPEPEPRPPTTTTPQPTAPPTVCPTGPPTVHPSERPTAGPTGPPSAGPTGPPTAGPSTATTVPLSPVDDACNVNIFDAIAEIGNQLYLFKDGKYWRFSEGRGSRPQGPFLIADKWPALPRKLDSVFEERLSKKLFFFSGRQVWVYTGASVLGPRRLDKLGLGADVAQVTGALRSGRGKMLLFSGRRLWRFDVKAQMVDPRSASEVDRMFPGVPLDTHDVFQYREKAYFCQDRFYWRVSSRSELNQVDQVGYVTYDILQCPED

## Cc1cccc(C(=O)NO)c1N(Cc1cccnc1)S(=O)(=O)c1ccc(-c2ccc3c(c2)OCO3)cc1 [Example 415, 2-[(4-Benzo[1,3]dioxol-5-yl-benzenesulfonyl)-pyridin-3-ylmethyl-amino]-N-hydroxy-3-methyl-benzamide]
MMP-9
  inhibition at 1 µM: 43%
MMP-1
  MMP-1 % inhibition: 37%(10)
TACE
  inhibition at 1 µM: 9%
MMP-13
  IC50: 26 nM

## COC(=O)c1cccc(C(=O)NO)c1N(C)S(=O)(=O)c1ccc(OC)cc1 [Example 373, N-Hydroxy-2-[(4-methoxy-benzenesulfonyl)-methyl-amino]-isophthalamic acid methyl ester]
MMP-9
  IC50: 26 nM
MMP-1
  IC50: 1280 nM
TACE; read-out: TACE IC50
  IC50: 539 nM
MMP-13; read-out: MMP-13 IC50
  IC50: 59 nM

## COc1ccc(S(=O)(=O)N(Cc2cccnc2)c2c(C)cc(-c3ccco3)cc2C(=O)NO)cc1 [Example 255, 5-Furan-2-yl-N-hydroxy-2-[(4-methoxy-benzenesulfonyl)-pyridin-3-ylmethyl-amino]-3-methyl-benzamide]
MMP-9
  IC50: 7.1 nM
MMP-1
  IC50: 48 nM
TACE; read-out: TACE IC50
  IC50: 65 nM
MMP-13; read-out: MMP-13 IC50
  IC50: 3.2 nM

## CCCCCCCCCCC#Cc1cc(C)c(N(C)S(=O)(=O)c2ccc(OC)cc2)c(C(=O)NO)c1 [Example 358, 5-Dodec-1-ynyl-N-hydroxy-2-[(4-methoxy-benzenesulfonyl)-methyl-amino]-3-methyl-benzamide]
MMP-9
  IC50: 101 nM
MMP-1
  MMP-1 % inhibition: 25%(10)
TACE; read-out: TACE IC50
  IC50: 1050 nM
MMP-13; read-out: MMP-13 IC50
  IC50: 107 nM

## COc1ccc(S(=O)(=O)N(Cc2cccnc2)c2c(C)cc(-c3ccc(C(C)=O)s3)cc2C(=O)NO)cc1 [Example 264, 5-(5-Acetyl-thiophen-2-yl)-N-hydroxy-2-[(4-methoxy-benzenesulfonyl)-pyridin-3-ylmethyl-amino]-3-methyl-benzamide]
MMP-9
  IC50: 3.7 nM
MMP-1
  IC50: 159 nM
TACE; read-out: TACE IC50
  IC50: 77 nM
MMP-13; read-out: MMP-13 IC50
  IC50: 6.4 nM

## COc1ccc(S(=O)(=O)N(Cc2ccccc2)c2c(OCC(F)(F)F)cccc2C(=O)NO)cc1 [Example 55, 2-[Benzyl-(4-methoxy-benzenesulfonyl)-amino]-N-hydroxy-3-(2,2,2-trifluoroethoxy)-benzamide]
MMP-9
  IC50: 29 nM
MMP-1
  IC50: 670 nM
TACE; read-out: TACE IC50
  IC50: > 1000 nM
MMP-13; read-out: MMP-13 IC50
  IC50: 216 nM

## Cc1cccc(C(=O)NO)c1N(Cc1cccnc1)S(=O)(=O)c1ccc(-c2cc3ccccc3s2)cc1 [Example 414, 2-[(4-Benzo[b]thiophen-2-yl-benzenesulfonyl)-pyridin-3-ylmethyl-amino]-N-hydroxy-3-methyl-benzamide]
MMP-9
  inhibition at 1 µM: 68%
MMP-1
  MMP-1 % inhibition: 29%(10)
TACE
  inhibition at 1 µM: 6%
MMP-13; read-out: MMP-13 IC50
  IC50: 38 nM

## COc1ccc(S(=O)(=O)N(Cc2cccnc2)c2c(C)cc(-c3ccc4c(c3)OCO4)cc2C(=O)NO)cc1 [Example 405, 5-Benzo[1,3]dioxol-5-yl-N-hydroxy-2-[(4-methoxy-benzenesulfonyl)-pyridin-3-ylmethyl-amino]-3-methyl-benzamide hydrochloride salt]
MMP-9
  IC50: 4.1 nM
MMP-1
  IC50: 176 nM
TACE; read-out: TACE IC50
  IC50: 151 nM
MMP-13; read-out: MMP-13 IC50
  IC50: 5.8 nM

## COc1ccc(S(=O)(=O)N(Cc2cccnc2)c2c(C)cc(-c3ccc(OC(F)(F)F)cc3)cc2C(=O)NO)cc1 [Example 404, 4-[(4-Methoxy-benzenesulfonyl)-pyridin-3-ylmethyl-amino]-5-methyl-4'-trifluoromethoxy-biphenyl-3-carboxylic acid hydroxyamide hydrochloride salt]
MMP-9
  IC50: 5.9 nM
MMP-1
  IC50: 1800 nM
TACE
  inhibition at 1 µM: 54%
MMP-13; read-out: MMP-13 IC50
  IC50: 9.5 nM

## COc1ccc(S(=O)(=O)N(Cc2cccnc2)c2c(C(=O)O)cccc2C(=O)NO)cc1 [Example 374, N-Hydroxy-2-[(4-methoxy-benzenesulfonyl)-pyridin-3-ylmethyl-amino]-isophthalamic acid]
MMP-9
  inhibition at 1 µM: 36%
MMP-1
  MMP-1 % inhibition: 56%(10)
TACE
  inhibition at 1 µM: 29%
MMP-13
  inhibition at 1 µM: 17%

## Cc1cc(Br)cc(C(=O)NO)c1N(Cc1ccccc1)S(=O)(=O)c1ccc(OCc2ccccc2)cc1 [Example 308]
MMP-9
  inhibition at 1 µM: 45%
MMP-1
  inhibition at 1 µM: 10%
TACE; read-out: TACE IC50
  IC50: 285 nM
MMP-13
  inhibition at 1 µM: 36%

## COc1ccc(S(=O)(=O)N(Cc2cccnc2)c2c(C)cc(-c3cccnc3)cc2C(=O)NO)cc1 [Example 285, N-Hydroxy-2-[(4-methoxy-benzenesulfonyl)-pyridin-3-ylmethyl-amino]-3-methyl-5-pyridin-3-yl-benzamide]
MMP-9
  IC50: 6 nM
MMP-1
  IC50: 312 nM
TACE; read-out: TACE IC50
  IC50: 61 nM
MMP-13; read-out: MMP-13 IC50
  IC50: 9.8 nM

## COc1ccc(S(=O)(=O)N(Cc2ccccc2)c2cc3ccccc3cc2C(=O)NO)cc1 [Example 94, 3-[Benzyl-(4-methoxy-benzenesulfonyl)-amino]-naphthalene-2-carboxylic acid hydroxyamide]
MMP-9
  IC50: 276 nM
MMP-1
  IC50: 1000 nM
TACE; read-out: TACE IC50
  IC50: > 1000 nM
MMP-13; read-out: MMP-13 IC50
  IC50: 209 nM

## CCCCOc1ccc(S(=O)(=O)N(Cc2ccccc2)c2c(C)cc(C)cc2C(=O)NO)cc1 [Example 72, 2-[Benzyl-(4-butoxy-benzenesulfonyl)-amino]-N-hydroxy-3,5-dimethyl-benzamide]
MMP-9
  IC50: 144 nM
MMP-1
  IC50: > 1000 nM
TACE; read-out: TACE IC50
  IC50: 377 nM
MMP-13; read-out: MMP-13 IC50
  IC50: 137 nM

## COc1ccc(S(=O)(=O)N(Cc2cccnc2)c2c(C)cc(C)cc2C(=O)NO)cc1 [Example 88, N-Hydroxy-2-[(4-methoxy-benzenesulfonyl)-pyridin-3-ylmethyl-amino]-3,5-dimethyl-benzamide]
MMP-9
  IC50: 15 nM
MMP-1
  IC50: 132 nM
TACE; read-out: TACE IC50
  IC50: 50 nM
MMP-13; read-out: MMP-13 IC50
  IC50: 11 nM

## CCN(CC)Cc1ccc(CN(c2c(C)cccc2C(=O)NO)S(=O)(=O)c2ccc(OC)cc2)cc1 [Example 377, 2-[(4-Diethylaminomethyl-benzyl)-(4-methoxy-benzenesulfonyl)-amino]-N-hydroxy-3-methyl-benzamide]
MMP-9
  IC50: 4.7 nM
MMP-1
  IC50: 123 nM
TACE; read-out: TACE IC50
  IC50: 258 nM
MMP-13; read-out: MMP-13 IC50
  IC50: 15 nM

## CCOC(=O)CCCCN(c1c(C)cccc1C(=O)NO)S(=O)(=O)c1ccc(OC)cc1 [Example 384, 5-[(2-Hydroxycarbamoyl-6-methyl-phenyl)-(4-methoxy-benzenesulfonyl)-amino]-pentanoic acid ethyl ester]
MMP-9
  inhibition at 1 µM: 52%
MMP-1
  inhibition at 1 µM: 48%
TACE
  inhibition at 1 µM: 55%
MMP-13
  inhibition at 1 µM: 61%

## COc1ccc(S(=O)(=O)N(Cc2ccccc2)c2c(C)cc(C)cc2C(=O)NO)cc1 [Example 68, 2-[Benzyl-(4-methoxy-benzenesulfonyl)-amino]-N-hydroxy-3,5-dimethyl-benzamide]
MMP-9
  IC50: 21 nM
MMP-1
  IC50: 82 nM
TACE; read-out: TACE IC50
  IC50: 239 nM
MMP-13; read-out: MMP-13 IC50
  IC50: 15 nM

## COc1ccc(S(=O)(=O)N(CC(=O)N2CCN(C)CC2)c2c(C)cccc2C(=O)NO)cc1 [Example 387, N-Hydroxy-2-{(4-methoxy-benzenesulfonyl)-[2-(4-methyl-piperazin-1-yl)-2-oxo-ethyl]-amino}-3-methyl-benzamide]
MMP-9
  IC50: 96 nM
MMP-1
  IC50: 2720 nM
TACE
  inhibition at 1 µM: 38%
MMP-13; read-out: MMP-13 IC50
  IC50: 307 nM

## COc1ccc(S(=O)(=O)N(Cc2cccnc2)c2c(C)ccc(C)c2C(=O)NO)cc1 [Example 297, N-Hydroxy-2-[(4-methoxy-benzenesulfonyl)-pyridin-3-ylmethyl-amino]-3,6-dimethyl-benzamide]
MMP-9
  IC50: 9 nM
MMP-1
  IC50: 297 nM
TACE
  inhibition at 1 µM: 58%
MMP-13; read-out: MMP-13 IC50
  IC50: 14 nM

## COc1ccc(S(=O)(=O)N(Cc2ccccc2)c2ccc(C)cc2C(=O)NO)cc1 [Example 29, 2-[Benzyl-(4-methoxy-benzenesulfonyl)-amino]-N-hydroxy-5-methyl-benzamide]
MMP-9
  IC50: 353 nM
MMP-1
  IC50: 553 nM
TACE; read-out: TACE IC50
  IC50: 1000 nM
MMP-13; read-out: MMP-13 IC50
  IC50: 728 nM

## COc1ccc(S(=O)(=O)N(Cc2cccnc2)c2c(C(=O)NO)cc(C)cc2-c2ccco2)cc1 [Example 186, 3-Furan-2-yl-N-hydroxy-2-[(4-methoxybenzenesulfonyl)-pyridin-3-ylmethylamino]-5-methyl-benzamide]
MMP-9
  IC50: 13 nM
MMP-1
  IC50: 37 nM
TACE
  IC50: 61 nM
MMP-13
  IC50: 1.4 nM

## COc1ccc(S(=O)(=O)N(Cc2ccccc2)c2c(C(=O)NO)cccc2C(F)(F)F)cc1 [Example 125, 2-[Benzyl-(4-methoxy-benzenesulfonyl)-amino]-N-hydroxy-3-trifluoromethyl-benzamide]
MMP-1
  IC50: > 1000 nM
TACE; read-out: TACE IC50
  IC50: 300 nM
MMP-13
  IC50: 134 nM

## COc1ccc(S(=O)(=O)N(Cc2ccccc2)c2c(C(=O)NO)cccc2N(C)C)cc1 [Example 390, 2-[Benzyl-(4-methoxy-benzenesulfonyl)-amino]-3-dimethylamino-N-hydroxy-benzamide]
MMP-1
  inhibition at 1 µM: 19%
TACE
  inhibition at 1 µM: 39%
MMP-13
  IC50: 531 nM

## Cc1cc(C)c(N(Cc2ccccc2)S(=O)(=O)c2ccc(OC(C)C)cc2)c(C(=O)NO)c1 [Example 304, 2-[Benzyl-(4-isopropoxy-benzenesulfonyl)-amino]-N-hydroxy-3,5-dimethyl-benzamide]
MMP-1
  IC50: 4100 nM
TACE
  inhibition at 1 µM: 25%
MMP-13; read-out: MMP-13 IC50
  IC50: 305 nM

## CCOc1ccc(S(=O)(=O)N(Cc2ccccc2)c2c(C)cc(C)cc2C(=O)NO)cc1 [Example 302, 2-[Benzyl-(4-ethoxy-benzenesulfonyl)-amino]-N-hydroxy-3,5-dimethyl-benzamide]
MMP-1
  IC50: 291 nM
TACE; read-out: TACE IC50
  IC50: 173 nM
MMP-13; read-out: MMP-13 IC50
  IC50: 24 nM
